This note sets out measurements from US10561591B2, “Hair care regimen using compositions comprising moisture control materials” (The Procter & Gamble Company, priority 2015, dated 2020).

Experiment [1] in a line: Expert rating of hair switches for frizz, clean feel and greasy feel (5 point scale) after high humidity. To be noted: 1% in ethanol/water leave-on. Here is the method:
(§1) Additional leave-on treatment compositions are prepared (Tables 1 and 2) according to the procedure described above, which are used to treat hair switches using the procedure described above (amount of 0.10 g of composition per g of hair). […] Then, ten experts are asked to rate each hair switch in terms of frizz, clean feel, and greasy feel, based on a 5 point scale, 5 being the highest and 1 being the lowest rating.
Acceptable values are: • For frizz, less than 2 (lower number corresponds to less frizz); • For no greasy feel less than 3, (lower number corresponds to less greasy feel), and • For clean feel greater than 3 (higher number corresponds to cleaner feel).
as §1, with “(Tables 6” for “(Tables 1”, “and 7)” for “and 2)”, “rating. Acceptable values are: • For frizz, less than 2 (lower number corresponds to less frizz); • For no greasy feel less than 3, (lower number corresponds to less greasy feel), and • For clean feel greater than 3 (higher number corresponds to cleaner feel).” for “rating.”

Experiment [2] is described as follows: Penetration amount of moisture control material inside hair (extraction with 0.1% TFA in methanol, HPLC). To be noted: 2% 2-hydroxyethyl urea versus composition without (example III and IV).
Experimental: Each hair tress is extracted 3 times with 0.1% TFA (Trifluoroacetic acid) in methanol and the individual extracts are analyzed separately using HPLC method.
A short description of experiment [3]: Dynamic Vapor Sorption (DVS) measurement: % water reduction of treated hair versus control. Here is the method: The % water reduction is calculated as follows: […]
Leave-on Treatment Formulation: […]

Turning to `O=C(O)c1ccc(O)cc1O` [2,4-Dihydroxybenzoic acid], the “hair switch rating (frizz, clean feel, greasy feel), in words” value (“hair switch rating” below) in experiment [1] was “provide fizz protection with clean feel and without greasy feel negative”.

Turning to `CCCCCCCCC(CO)CCCCCC` (stereo not drawn) [2-Hexyl-1-decanol], the “hair switch rating” value in experiment [1] is “provide frizz protection with clean feel and without greasy feel negative”. Same read-out and setting: as for `O=C(OCCO)c1ccccc1O` [2-Hydroxyethyl salicylate], the entry is “provide frizz protection with clean feel and without greasy feel negative”; as for `O=S(=O)(O)c1ccc(O)cc1` [4-Hydroxybenzenesulphonic acid], “provide fizz protection with clean feel and without greasy feel negative”. Consider `O=C(O)c1cc(Cl)ccc1O` [5-Chlorosalicylic acid], for which the “hair switch rating” value in experiment [1] is “provide fizz protection with clean feel and without greasy feel negative”. `CC(C)CCCCCCCCCCCCCCCOC(=O)CCCCCCCCCCCCCCC(C)C` [Isostearyl isostearate]: the “hair switch rating” value in experiment [1] is “provide frizz protection with clean feel and without greasy feel negative”.

`O=C(O)c1ccccc1O` [Salicylic acid]: the “increase of penetration of salicylic acid inside hair by 2-hydroxyethyl urea” value in experiment [2] came out at 14%. The “hair switch rating” value in experiment [1] was “provide fizz protection with clean feel and without greasy feel negative”. For `O=CC(=O)O` [glyoxylic acid], the “% water reduction in regimen, in words” value in experiment [3] was “further increase % water reduction”.
